The values below come from patent US12714106B2 (Bayer Aktiengesellschaft, priority 2020, dated 2026).

Holding throughout (type): in vivo
Assay [1] deals with LOLRI - sensitive (Lolium rigidum). Briefly: Post-emergence greenhouse herbicide test, visual rating. The conditions noted are these: post-emergence, 21 days after application. The protocol:
(§1) Seeds of grass and broadleaf weeds were sown in pots (diameter: 7 cm) filled with a sandy loam soil. Following germination the plants were grown under optimal conditions up to a growth stage of BBCH 11 to 14 depending on species.
(§2) The applications were performed by post emergence treatments on the planted pots using a spray volume of 300 L water per hectare. The herbicides were applied alone and in combination as described.
(§3) The trial was conducted in the greenhouse ensuring optimal growing conditions.
(§4) The herbicidal effects were assessed 21 days following application by visual ratings comparing treated and untreated plants (0%=no effect to 100%=complete die-off).
(§5) The compounds of the formula (Ia), (Ib) and (I) were formulated as WP (wettable powder) formulation.
(§6) • BBCH=the BBCH code provides information about the morphological development stage of a plant. Officially, the abbreviation denotes the Biologische Bundesanstalt, Bundessortenamt and Chemische Industrie [Federal Biological Institute for Agriculture and Forestry, Federal Office for Crop Plant Varieties and Chemical Industry]. The range of BBCH 00-10 denotes the germination stages of the seeds until surface penetration. The range of BBCH 11-25 denotes the leaf development stages until stocking (corresponding to the number of tillers or side-shoots). In the Trials, the Following Biotypes of Broad-Leaved Weeds and Weed Grasses were Used: • ALOMY—sensitive (Alopecurus myosuroides) sensitive to customary herbicidally active compounds. • ALOMY_R (resistant) (Alopecurus myosuroides) resistant to herbicidally active compounds of the HRAC groups A and B; population mixture of field origin having increased metabolic resistance (IMR) and some target site resistance (TSR). • LOLRI—sensitive (Lolium rigidum) sensitive to customary herbicidally active compounds. • LOLRI_R (resistant) (Lolium rigidum) resistant to herbicidally active compounds of the HRAC groups A and B; population mixture of field origin having increased metabolic resistance (IMR) and some target site resistance (TSR). • AMAPA_R (resistant) (Amaranthus palmeri) resistant to herbicidally active compounds of the HRAC groups A and B; population mixture of field origin having increased metabolic resistance (IMR) and some target site resistance (TSR). • CHRVI (Chloris virgate) feather finger grass • KCHSC (Kochia scoparia) Mexican burning bush • MATIN (Matricaria inodora) false chamomile • POLCO (Polygonum convolvulus) black knotweed • ABUTH (Abutilon theophrasti) china jute • AMAPA (Amaranthus palmeri) palmer amaranth • BIDPI (Bidens pilosa) common blackjack • CHEAL (Chenopodium album) common lambsquarters • EPHHL (Euphorbia heterophylla) wild spurge • XANST (Xanthium strumarium) large cocklebur • EMEAU (Emex australis)—Cathead • GALAP (Gallium aparine)—Cleaver
(§7) The synergistic herbicidal activity was calculated using Colby's formula (cf. S. R. Colby; Weeds 15 (1967), 20-22): […]

The test system of assay [2] is POLCO (Polygonum convolvulus). The description is as above. The conditions noted are these: 12.5 g/ha; post-emergence; 21 days after application. The protocol:
as §1, §2, §3, §4, §5, §6, §7

In assay [3] the test system is LOLRI_R (resistant) (Lolium rigidum). Described as above. The conditions noted are these: post-emergence, 21 days after application. As for the experimental part: as §1, §2, §3, §4, §5, §6, §7
Assay [4] deals with BID PI (Bidens pilosa). The description is as above. The conditions noted are these: 25 g/ha single isomer; post-emergence; 21 days after application. As for the experimental part: as §1, §2, §3, §4, §5, §6, §7
Assay [5] has as its system ABUTH (Abutilon theophrasti). The description is as above. The conditions noted are these: post-emergence, 21 days after application. The protocol: as §1, §2, §3, §4, §5, §6, §7
For assay [6], the system named is AMAPA-R (resistant) (Amaranthus palmeri). The assay is described as above. The conditions noted are these: 25 g/ha single isomer; post-emergence; 21 days after application. As for the experimental part:
as §1, §2, §3, §4, §5, §6, §7

Assay [7] has as its system CHEAL (Chenopodium album). Described as above. The conditions noted are these: post-emergence, 21 days after application. As for the experimental part:
as §1, §2, §3, §4, §5, §6, §7

The test system of assay [8] is KCHSC (Kochia scoparia). The description is as above. The conditions noted are these: 12.5 g/ha; post-emergence; 21 days after application. The protocol:
as §1, §2, §3, §4, §5, §6, §7

In assay [9] the test system is EMEAU (Emex australis). The description is as above. The conditions noted are these: 50 g/ha; post-emergence; 21 days after application. As for the experimental part:
as §1, §2, §3, §4, §5, §6, §7

The test system of assay [10] is GALAP (Gallium aparine). The description is as above. The conditions noted are these: 50 g/ha; post-emergence; 21 days after application. The protocol:
as §1, §2, §3, §4, §5, §6, §7

Assay [11] has as its system MATIN (Matricaria inodora). Described as above. The conditions noted are these: post-emergence, 21 days after application. The protocol: as §1, §2, §3, §4, §5, §6, §7
Assay [12] relates to XANST (Xanthium strumarium). Described as above. The conditions noted are these: post-emergence, 21 days after application. The protocol: as §1, §2, §3, §4, §5, §6, §7
Assay [13] relates to EPHHL (Euphorbia heterophylla). The assay is described as above. The conditions noted are these: post-emergence, 21 days after application. As for the experimental part: as §1, §2, §3, §4, §5, §6, §7
For assay [14], the system named is CHRVI (Chloris virgate). Described as above. The conditions noted are these: 12.5 g/ha; post-emergence; 21 days after application. The protocol:
as §1, §2, §3, §4, §5, §6, §7

Assay [15] concerns grass and broadleaf weeds. Nature of the assay: Comparative testing of crystalline (I), (Ia), (Ib), summary of tables 3 to 6. The conditions noted are these: (I) vs (Ia); (Ia) vs (Ib); see tables 3 to 6. The protocol:
as §1, §2, §3, §4, §5, §7

For `C=C[C@]1(C(=O)N[C@H]2CO[C@@H](C(=O)OC)C2)CC(c2cc(F)cc(F)c2)=NO1` [(Ia), methyl(2R,4R)-4-[[(5S)-3-(3,5-difluorophenyl)-5-vinyl-4H-isoxazole-5-carbonyl]amino]-tetrahydrofuran-2-carboxylate], the “LOLRI Observed” value is 20% in assay [1] (6.25 g/ha) and 90% in assay [1] (12.5 g/ha). For the same compound, the “POLCO Observed” value in assay [2] is on record as 85%. For the same compound, the “LOLRI_R Observed” value in assay [3] (6.25 g/ha) is 15%; in assay [3] (12.5 g/ha), 20%; in assay [3] (25 g/ha) it was 30%. Moreover, in assay [4], the “BID PI Observed” value turned out to be 30%. For the same compound, the “ABUTH Observed” value in assay [5] (25 g/ha single isomer) came out at 45%; in assay [5] (50 g/ha single isomer), 60%. The “AMAPA-R Observed” value in assay [6] was determined as 35%. Moreover, in assay [7] (25 g/ha single isomer), the “CHEAL Observed” value turned out to be 70%. The “KCHSC Observed” value in assay [8] was determined as 70%. Further, the “EMEAU Observed” value in [9] turned out to be 80%. Further, the “GALAP Observed” value in assay [10] is recorded as 75%. Further, the “MATIN Observed” value in assay [11] (12.5 g/ha), in assay [11] (25 g/ha) and in assay [11] (50 g/ha) was 0% each time. Moreover, the “XANST Observed” value in assay [12] (25 g/ha single isomer) is listed as 0%; in assay [12] (50 g/ha single isomer), 20%; in [12] (100 g/ha single isomer), 20%. The results for the “EPHHL Observed” value in [13] (25 g/ha single isomer) and in [13] (50 g/ha single isomer) were 30% and 35%, respectively. The “CHRVI Observed” value in assay [14] was found to be 35%. The “herbicidal activity compared with the other crystalline forms” value in assay [15] is “superior in activity”.

With `C=C[C@]1(C(=O)N[C@@H]2CO[C@H](C(=O)OC)C2)CC(c2cc(F)cc(F)c2)=NO1` [(Ib), methyl(2S,4S)-4-[[(5S)-3-(3,5-difluorophenyl)-5-vinyl-4H-isoxazole-5-carbonyl]amino]-tetrahydrofuran-2-carboxylate], the “LOLRI Observed” value in assay [1] (6.25 g/ha) and in assay [1] (12.5 g/ha) was 0% in each case. For the same compound, in assay [2], the “POLCO Observed” value was found to be 40%. The “LOLRI_R Observed” value in [3] (6.25 g/ha), in assay [3] (12.5 g/ha) and in assay [3] (25 g/ha) was 0% throughout. Also, the “BID PI Observed” value in assay [4] came out at 10%. The “ABUTH Observed” value is on record as 10% in assay [5] (25 g/ha single isomer) and 20% in [5] (50 g/ha single isomer). In assay [6], the “AMAPA-R Observed” value was 25%. Moreover, the figures for the “CHEAL Observed” value in [7] (25 g/ha single isomer) and in assay [7] (50 g/ha single isomer) were 20% and 60%, respectively. Moreover, in [8], the “KCHSC Observed” value was found to be 40%. Also, in assay [9], the “EMEAU Observed” value amounted to 45%. Also, the “GALAP Observed” value in assay [10] was 35%. In addition, the “MATIN Observed” value in assay [11] (12.5 g/ha), in assay [11] (25 g/ha) and in assay [11] (50 g/ha) was 0% in each case. For the same compound, the “XANST Observed” value in assay [12] (25 g/ha single isomer) was found to be 0%; in assay [12] (50 g/ha single isomer), 10%; in assay [12] (100 g/ha single isomer), 20%. The “EPHHL Observed” value in [13] (25 g/ha single isomer) and in assay [13] (50 g/ha single isomer) was 35% each time. The “CHRVI Observed” value in [14] amounted to 20%.
